Results on 35 molecules are retold here after patent US9458110B2, “Phenylpyrazole derivatives as potent ROCK1 and ROCK2 inhibitors” (BRISTOL-MYERS SQUIBB COMPANY, priority 2013, dated 2016).

One assay has as its target ROCK1 (Homo sapiens (Human), UniProt Q13464). Description: ROCK assay (Caliper LABCHIP peptide phosphorylation), ROCK1.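 Further: Read-out is separation of phosphorylated from unphosphorylated peptide, with kinase activity inhibition computed at every concentration of a dose-response series.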 The class given is biochemical. Conditions: 5 μM ATP, 1.5 μM peptide substrate.
In the next assay the target is ROCK2 (Homo sapiens (Human), UniProt O75116). Description: ROCK assay (Caliper LABCHIP peptide phosphorylation), ROCK2.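 Further: reaction stopped with EDTA, then phosphorylated and unphosphorylated peptide resolved by microfluidic electrophoresis, kinase inhibition computed at each compound concentration in dose-response series, DMSO under 2%.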 The class given is biochemical. As to conditions: 5 μM ATP, 1.5 μM peptide substrate.

Molecules are shown by their SMILES. Some results are limits rather than exact numbers.

ROCK2, sequence (O75116 whole entry, species assumed): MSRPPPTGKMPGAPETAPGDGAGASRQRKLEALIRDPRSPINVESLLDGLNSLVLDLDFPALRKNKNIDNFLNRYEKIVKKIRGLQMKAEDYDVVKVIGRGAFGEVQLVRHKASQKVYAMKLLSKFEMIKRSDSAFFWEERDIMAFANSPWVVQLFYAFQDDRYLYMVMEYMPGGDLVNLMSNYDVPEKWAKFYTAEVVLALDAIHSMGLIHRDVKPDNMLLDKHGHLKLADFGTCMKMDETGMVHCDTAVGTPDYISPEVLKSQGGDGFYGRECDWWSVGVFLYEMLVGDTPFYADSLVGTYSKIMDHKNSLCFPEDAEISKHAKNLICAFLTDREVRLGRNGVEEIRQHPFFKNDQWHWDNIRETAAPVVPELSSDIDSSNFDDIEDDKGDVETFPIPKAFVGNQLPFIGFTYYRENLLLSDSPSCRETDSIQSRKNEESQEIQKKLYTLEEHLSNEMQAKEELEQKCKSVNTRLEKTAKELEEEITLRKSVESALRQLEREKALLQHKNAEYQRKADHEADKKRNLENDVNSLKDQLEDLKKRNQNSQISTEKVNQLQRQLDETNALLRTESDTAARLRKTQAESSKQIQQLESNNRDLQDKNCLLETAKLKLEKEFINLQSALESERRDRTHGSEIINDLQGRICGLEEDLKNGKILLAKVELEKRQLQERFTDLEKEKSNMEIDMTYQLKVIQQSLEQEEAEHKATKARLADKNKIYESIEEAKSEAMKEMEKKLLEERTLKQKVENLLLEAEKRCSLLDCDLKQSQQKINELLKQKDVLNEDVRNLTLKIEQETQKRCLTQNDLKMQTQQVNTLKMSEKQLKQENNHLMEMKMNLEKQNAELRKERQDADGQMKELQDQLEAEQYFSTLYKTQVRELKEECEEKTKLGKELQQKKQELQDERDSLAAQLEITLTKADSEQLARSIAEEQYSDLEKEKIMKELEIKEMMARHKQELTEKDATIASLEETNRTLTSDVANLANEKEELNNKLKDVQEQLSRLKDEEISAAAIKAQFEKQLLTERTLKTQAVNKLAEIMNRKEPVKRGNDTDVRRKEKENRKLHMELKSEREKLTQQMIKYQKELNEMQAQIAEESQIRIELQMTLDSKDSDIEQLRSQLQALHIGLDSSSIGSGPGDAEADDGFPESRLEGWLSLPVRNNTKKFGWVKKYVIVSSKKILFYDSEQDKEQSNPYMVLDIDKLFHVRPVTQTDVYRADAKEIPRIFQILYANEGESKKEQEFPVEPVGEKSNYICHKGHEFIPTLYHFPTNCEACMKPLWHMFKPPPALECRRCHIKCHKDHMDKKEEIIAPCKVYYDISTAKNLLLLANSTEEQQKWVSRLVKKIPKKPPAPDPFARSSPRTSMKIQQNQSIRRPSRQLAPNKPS
ROCK1, sequence (Q13464 whole entry, species assumed): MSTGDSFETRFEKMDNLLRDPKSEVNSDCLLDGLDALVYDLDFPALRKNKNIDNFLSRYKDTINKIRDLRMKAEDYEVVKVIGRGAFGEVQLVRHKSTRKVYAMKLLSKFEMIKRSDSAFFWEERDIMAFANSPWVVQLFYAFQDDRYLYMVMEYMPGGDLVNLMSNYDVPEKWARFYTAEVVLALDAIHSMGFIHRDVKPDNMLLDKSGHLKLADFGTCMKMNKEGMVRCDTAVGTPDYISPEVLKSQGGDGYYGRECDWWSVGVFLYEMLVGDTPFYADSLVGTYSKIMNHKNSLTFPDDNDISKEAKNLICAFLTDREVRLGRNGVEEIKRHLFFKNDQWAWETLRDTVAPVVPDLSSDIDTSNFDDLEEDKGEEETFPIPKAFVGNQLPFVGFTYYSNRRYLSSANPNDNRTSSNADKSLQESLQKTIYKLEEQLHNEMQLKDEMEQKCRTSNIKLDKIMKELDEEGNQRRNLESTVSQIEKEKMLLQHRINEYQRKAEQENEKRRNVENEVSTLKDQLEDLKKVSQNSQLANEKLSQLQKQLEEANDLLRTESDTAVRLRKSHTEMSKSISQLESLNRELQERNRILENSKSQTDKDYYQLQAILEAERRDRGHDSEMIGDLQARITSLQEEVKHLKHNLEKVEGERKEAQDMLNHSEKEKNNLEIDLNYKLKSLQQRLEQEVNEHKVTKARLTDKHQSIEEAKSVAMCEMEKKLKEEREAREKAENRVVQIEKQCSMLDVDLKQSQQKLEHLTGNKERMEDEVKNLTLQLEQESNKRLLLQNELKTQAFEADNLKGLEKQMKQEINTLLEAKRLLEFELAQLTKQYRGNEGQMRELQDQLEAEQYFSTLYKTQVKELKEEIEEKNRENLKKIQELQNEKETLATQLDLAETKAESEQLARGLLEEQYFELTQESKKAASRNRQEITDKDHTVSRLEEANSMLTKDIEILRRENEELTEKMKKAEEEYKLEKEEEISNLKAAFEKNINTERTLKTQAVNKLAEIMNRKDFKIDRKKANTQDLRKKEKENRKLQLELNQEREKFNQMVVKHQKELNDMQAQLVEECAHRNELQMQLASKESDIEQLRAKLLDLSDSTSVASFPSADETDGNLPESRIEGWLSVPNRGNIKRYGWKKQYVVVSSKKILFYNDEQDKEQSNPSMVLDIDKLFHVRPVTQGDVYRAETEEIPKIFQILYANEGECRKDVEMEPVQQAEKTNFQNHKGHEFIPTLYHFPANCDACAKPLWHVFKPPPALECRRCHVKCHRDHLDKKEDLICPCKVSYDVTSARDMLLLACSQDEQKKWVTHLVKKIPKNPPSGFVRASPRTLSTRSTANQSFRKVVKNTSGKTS

For `C[C@@H](NC(=O)c1ccc(-c2cn[nH]c2)c(OC(F)F)c1)c1ccc(F)cc1` [Example 164, 3-(difluoro-methoxy)-N-[(1R)-1-(4-fluorophenyl)ethyl]-4-(1H-pyrazol-4-yl)benzamide], the IC50 came out at 22.5 nM against ROCK1 and 7.49 nM on ROCK2.
`COc1cc(C(=O)NCc2cc(F)cc(F)c2F)ccc1-c1cn[nH]c1` [Example 91, 3-methoxy-4-(1H-pyrazol-4-yl)-N-[(2,3,5-trifluorophenyl)methyl] benzamide]: the IC50 on ROCK1 is 38.5 nM; at ROCK2, 7.66 nM.
For `Cc1cc(C(=O)NCc2ccc(F)cc2Cl)ccc1-c1cn[nH]c1` [Example 149, N-[(2-chloro-4-fluorophenyl)methyl]-3-methyl-4-(1H-pyrazol-4-yl)benzamide] the same measures were 16.9 nM and 11.6 nM.
With `COc1cc(-c2cn[nH]c2)ccc1C(=O)NCc1ccccc1Cl` [Example 53, N-(2-Chlorobenzyl)-2-methoxy-4-(1H-pyrazol-4-yl)benzamide], the IC50 at ROCK1 worked out at 11.3 nM; against ROCK2, 6.2 nM.
For `C[C@@H](NC(=O)c1ccc(-c2cn[nH]c2)c(CO)c1)c1ccc(F)cc1` [Example 271, N-[(1R)-1-(4-Fluorophenyl)ethyl]-3-(hydroxymethyl)-4-(1H-pyrazol-4-yl)benzamide] the same measures were 3450 nM and 75 nM.
In the case of `COc1cc(C(=O)N[C@H](C)c2ccccc2Cl)ccc1-c1cn[nH]c1` [Example 43, (R)-N-(1-(2-chlorophenyl)ethyl)-3-methoxy-4-(1H-pyrazol-4-yl) benzamide], the IC50 came to 40.8 nM at ROCK1 and 1.31 nM on ROCK2.
The matching figures for `COc1cc(C(=O)N[C@H](CO)[C@H](O)c2ccccc2)ccc1-c1cn[nH]c1` [Example 112, N-[(1R,2R)-1,3-dihydroxy-1-phenylpropan-2-yl]-3-methoxy-4-(1H-pyrazol-4-yl)benzamide]: 23.9 nM and 2.72 nM.
For `COc1cc(C(=O)NCC(c2ccccc2)N2CCNCC2)ccc1-c1cn[nH]c1` (stereo not shown) [Example 132, 3-methoxy-N-[2-phenyl-2-(piperazin-1-yl)ethyl]-4-(1H-pyrazol-4-yl)benzamide] the same measures were 180 nM and 103 nM.
For `COc1cc(C(=O)NCc2cc(F)cc(F)c2)ccc1-c1cn[nH]c1` [Example 52, N-(3,5-difluorobenzyl)-3-methoxy-4-(1H-pyrazol-4-yl)benzamide] the same measures were 125 nM and 63.4 nM.
On to `COc1cc(C(=O)NC(C)c2ccccc2)ccc1-c1cn[nH]c1` (stereo not shown) [Example 20, 3-methoxy-N-(1-phenylethyl)-4-(1H-pyrazol-4-yl)benzamide], for which the IC50 at ROCK1 was 10.5 nM; against ROCK2, 2.24 nM.
For `O=C(NCc1ccccc1)c1ccc(-c2cn[nH]c2)cc1CCO` [Example 211, N-benzyl-2-(2-hydroxyethyl)-4-(1H-pyrazol-4-yl) benzamide] the same measures were 1880 nM and 6510 nM.
For the molecule `C[C@@H](NC(=O)c1ccc(-c2cn[nH]c2)c(Cn2ccnn2)c1)c1ccccc1` [Example 137, N-[(1R)-1-phenylethyl]-4-(1H-pyrazol-4-yl)-3-(1H-1,2,3-triazol-1-ylmethyl) benzamide], the IC50 is above 2000 nM against ROCK1 and 1900 nM against ROCK2.
The matching figures for `COc1cc(C(=O)NC(CCN(C)C)c2ccccc2)ccc1-c1cn[nH]c1` (stereo not shown) [Example 178, N-[3-(dimethylamino)-1-phenylpropyl]-3-methoxy-4-(1H-pyrazol-4-yl)benzamide]: 94.2 nM and 31.9 nM.
For `Cc1cc(C(=O)NCc2cccc(C(=O)NCC3CC3)c2)ccc1-c1cn[nH]c1` [Example 243, N-({3-[(cyclopropyl-methyl)carbamoyl]phenyl}methyl)-3-methyl-4-(1H-pyrazol-4-yl)benzamide] the same measures were 3.38 nM and 0.5 nM.
For `COc1ccc(F)c(C(C)NC(=O)c2ccc(-c3c[nH]nc3C)cc2OC)c1` (stereo not shown) [Example 213, N-[1-(2-fluoro-5-methoxyphenyl)ethyl]-2-methoxy-4-(3-methyl-1H-pyrazol-4-yl)benzamide] the same measures were 15.6 nM and 5.16 nM.
Consider `COC[C@@H](NC(=O)c1ccc(-c2cn[nH]c2)c(OC)c1)c1ccccc1` [Example 157, 3-methoxy-N-[(1S)-2-methoxy-1-phenylethyl]-4-(1H-pyrazol-4-yl)benzamide], for which the IC50 on ROCK1 was 10.3 nM; against ROCK2, 3.94 nM.
As for `CC(O)c1cc(C(=O)N[C@H](C)c2ccccc2)ccc1-c1cn[nH]c1` (stereo partly drawn) [Example 281, 3-(1-hydroxyethyl)-N-[(1R)-1-phenylethyl]-4-(1H-pyrazol-4-yl)benzamide], the IC50 against ROCK1 was 26.8 nM; at ROCK2, 9.73 nM.
For `CCC(O)c1cc(C(=O)N[C@H](C)c2ccccc2)ccc1-c1cn[nH]c1` (stereo partly drawn) [Example 285, 3-(1-hydroxypropyl)-N-[(1R)-1-phenylethyl]-4-(1H-pyrazol-4-yl)benzamide] the same measures were above 2000 nM and 1480 nM.
For `COc1cc(C(=O)NCc2ccc(Cl)cc2S(=O)(=O)CC(C)C)ccc1-c1cn[nH]c1` [Example 37, N-(4-chloro-2-(isobutyl-sulfonyl)benzyl)-3-methoxy-4-(1H-pyrazol-4-yl)benzamide] the same measures were 2440 nM and 1410 nM.
For `COc1cc(C(=O)NC(C)c2ccccc2Cl)ccc1-c1cn[nH]c1` (racemic) [Example 4, (+/−)-N-(1-(2-chlorophenyl)ethyl)-3-methoxy-4-(1H-pyrazol-4-yl) benzamide] the same measures were 17.7 nM and 8.99 nM.
As to `COc1cc(C(=O)NCC(c2ccccc2)N2CCCC2)ccc1-c1cn[nH]c1` (stereo not shown) [Example 125, 3-methoxy-N-[2-phenyl-2-(pyrrolidin-1-yl)ethyl]-4-(1H-pyrazol-4-yl)benzamide], the figures for the IC50 at ROCK1 and at ROCK2 were 156 nM and 84.9 nM, respectively.
The matching figures for `COc1cc(C(=O)NCc2ccc(OCC(C)C)cc2Cl)ccc1-c1cn[nH]c1` [Example 46, N-(2-chloro-4-isobutoxybenzyl)-3-methoxy-4-(1H-pyrazol-4-yl)benzamide]: 1880 nM and 786 nM.
For `Cc1cc(C(=O)N[C@H](CC(=O)NCC(C)(C)O)c2ccccc2)ccc1-c1cn[nH]c1` [Example 253, (3R)-N-(2-Hydroxy-2-methylpropyl)-3-{[3-methyl-4-(1H-pyrazol-4-yl)phenyl]formamido}-3-phenylpropanamide] the same measures were 99 nM and 255 nM.
The matching figures for `COc1cccc(CNC(=O)c2ccc(-c3cn[nH]c3)c(C)c2)c1` [Example 58, N-(3-Methoxybenzyl)-3-methyl-4-(1H-pyrazol-4-yl)benzamide]: 16.9 nM and 2.28 nM.
As for `COc1cc(C(=O)NCc2cccc(C(N)=O)c2)ccc1-c1cn[nH]c1` [Example 250, N-[(3-carbamoylphenyl)methyl]-3-methoxy-4-(1H-pyrazol-4-yl)benzamide], the IC50 at ROCK1 was 10 nM; on ROCK2, 0.72 nM.
The matching figures for `COc1cccc(CCNC(=O)c2ccc(-c3cn[nH]c3)c(OC)c2)c1` [Example 114, 3-methoxy-N-[2-(3-methoxyphenyl)ethyl]-4-(1H-pyrazol-4-yl)benzamide]: 92.9 nM and 59.6 nM.
For `COc1cc(-c2cn[nH]c2)cc(F)c1C(=O)N[C@H](C)c1ccccc1` [Example 312, 2-fluoro-6-methoxy-N-[(1R)-1-phenylethyl]-4-(1H-pyrazol-4-yl)benzamide] the same measures were above 2000 nM and 1490 nM.
The matching figures for `COc1cc(C(=O)NCCc2ccc(C(F)(F)F)cc2)ccc1-c1cn[nH]c1` [Example 121, 3-methoxy-4-(1H-pyrazol-4-yl)-N-{2-[4-(trifluoro-methyl)phenyl]ethyl} benzamide]: 166 nM and 78.1 nM.
Take `COc1cc(C(=O)N[C@H](C)c2ccc(F)cc2)ccc1-c1cn[nH]c1` [Example 73, (R)-N-(1-(4-fluorophenyl)ethyl)-3-methoxy-4-(1H-pyrazol-4-yl)benzamide]: the IC50 against ROCK1 is 9.03 nM; at ROCK2, 2.69 nM.
For `CN(C)CCOc1cc(C(=O)NCc2ccccc2Cl)ccc1-c1cn[nH]c1` [Example 63, N-(2-Chlorobenzyl)-3-(2-(dimethylamino)ethoxy)-4-(1H-pyrazol-4-yl)benzamide] the same measures were 1580 nM and 844 nM.
The matching figures for `COc1cc(C(=O)NCc2cccc(OC(F)F)c2)ccc1-c1cn[nH]c1` [Example 78, N-(3-(difluoro-methoxy)benzyl)-3-methoxy-4-(1H-pyrazol-4-yl)benzamide]: 21.8 nM and 3.94 nM.
The matching figures for `CC(NC(=O)c1ccc(-c2cn[nH]c2)c(C(F)F)c1)c1ccccc1F` (single isomer, unassigned) [Example 300, 3-(Difluoromethyl)-N-(1-(2-fluorophenyl)ethyl)-4-(1H-pyrazol-4-yl)benzamide]: 108 nM and 77.1 nM.
Take `CC(NC(=O)c1ccc(-c2cn[nH]c2)c(C=O)c1)c1ccccc1F` (stereo not shown) [Example 275, N-[1-(2-fluorophenyl)ethyl]-3-formyl-4-(1H-pyrazol-4-yl)benzamide]: the IC50 was determined as 983 nM against ROCK1 and 1420 nM at ROCK2.
The matching figures for `N#Cc1cc(C(=O)N[C@H](CO)c2c(F)cccc2F)ccc1-c1cn[nH]c1` [Example 198, 3-cyano-N-[(1S)-1-(2,6-difluorophenyl)-2-hydroxyethyl]-4-(1H-pyrazol-4-yl)benzamide]: 397 nM and 140 nM.
For `COc1cc(C(=O)NCc2cccc(C(=O)Nc3nc4c(s3)CNCC4)c2)ccc1-c1cn[nH]c1` [Example 246, 3-methoxy-4-(1H-pyrazol-4-yl)-N-{[3-({4H,5H,6H, 7H-[1,3]thiazolo[5,4-c]pyridin-2-yl}carbamoyl)phenyl]methyl} benzamide], the figures for the IC50 against ROCK1 and at ROCK2 were 0.26 nM and 0.23 nM, respectively.

A word on the IC50: it is the midpoint of a concentration-inhibition curve.
